# Results: article PMC1307573 (Journal of Insect Science, 2005)
# Experiments:
# Gyc-88EL [1] = target: T1, Gyc-88EL (Drosophila melanogaster, UniProt Q8INF0); assay type: biochemical
# T1 sequence (Q8INF0 1-1097): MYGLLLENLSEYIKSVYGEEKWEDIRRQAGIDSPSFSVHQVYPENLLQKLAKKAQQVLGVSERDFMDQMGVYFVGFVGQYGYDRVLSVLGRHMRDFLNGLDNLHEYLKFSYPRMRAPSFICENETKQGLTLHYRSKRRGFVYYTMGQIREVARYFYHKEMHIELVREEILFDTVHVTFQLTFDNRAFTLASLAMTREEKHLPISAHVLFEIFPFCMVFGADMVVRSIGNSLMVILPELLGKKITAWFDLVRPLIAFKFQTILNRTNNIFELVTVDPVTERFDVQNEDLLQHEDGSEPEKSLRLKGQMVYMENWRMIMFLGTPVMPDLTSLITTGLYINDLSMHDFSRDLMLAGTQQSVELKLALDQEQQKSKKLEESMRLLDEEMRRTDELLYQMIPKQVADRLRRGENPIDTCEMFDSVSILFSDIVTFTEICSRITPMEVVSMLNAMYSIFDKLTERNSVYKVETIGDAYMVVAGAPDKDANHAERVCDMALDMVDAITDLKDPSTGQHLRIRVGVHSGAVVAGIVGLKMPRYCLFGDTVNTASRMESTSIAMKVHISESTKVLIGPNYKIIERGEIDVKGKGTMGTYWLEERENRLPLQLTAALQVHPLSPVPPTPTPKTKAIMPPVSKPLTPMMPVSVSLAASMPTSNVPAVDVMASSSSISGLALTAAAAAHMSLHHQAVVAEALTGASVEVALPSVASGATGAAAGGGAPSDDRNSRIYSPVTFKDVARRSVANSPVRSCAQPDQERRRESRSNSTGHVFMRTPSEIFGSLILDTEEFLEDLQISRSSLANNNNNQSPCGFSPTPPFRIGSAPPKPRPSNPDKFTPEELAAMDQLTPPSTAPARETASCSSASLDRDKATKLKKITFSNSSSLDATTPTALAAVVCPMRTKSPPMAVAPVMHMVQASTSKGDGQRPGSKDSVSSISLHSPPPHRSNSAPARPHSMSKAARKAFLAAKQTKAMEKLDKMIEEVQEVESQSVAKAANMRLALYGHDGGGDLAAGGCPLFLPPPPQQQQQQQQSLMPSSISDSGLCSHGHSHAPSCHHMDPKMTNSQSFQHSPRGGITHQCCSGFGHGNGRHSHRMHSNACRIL
# Gyc-88EL/89Da = Gyc-88EL/89Da (Drosophila melanogaster, UniProt Q8INF0+Q9VEU6); assay type: biochemical
# Gyc-88EL/89Db [2] = target: T2, Gyc-88EL/89Db (Drosophila melanogaster, UniProt Q8INF0+Q9VEU5); assay type: biochemical; details: for activation by NO-independent activator: COS-7 cell extracts, 4mM Mg2+
# Gycα-99B/β-100B = Gycα-99B/β-100B (Drosophila melanogaster, UniProt Q07093+Q9VA09); assay type: biochemical
# [3] = NO donor; cited from earlier work
# Gyc-88EL [4] = target: T1, Gyc-88EL; details: ref Langlais et al. 2004, cited from earlier work
# Gyc-88EL/89Db [5] = target: T2, Gyc-88EL/89Db; details: ref Langlais et al. 2004; cited from earlier work
# Gyc-88EL/89Da, sequence (Q9VEU6 whole entry, one chain of several): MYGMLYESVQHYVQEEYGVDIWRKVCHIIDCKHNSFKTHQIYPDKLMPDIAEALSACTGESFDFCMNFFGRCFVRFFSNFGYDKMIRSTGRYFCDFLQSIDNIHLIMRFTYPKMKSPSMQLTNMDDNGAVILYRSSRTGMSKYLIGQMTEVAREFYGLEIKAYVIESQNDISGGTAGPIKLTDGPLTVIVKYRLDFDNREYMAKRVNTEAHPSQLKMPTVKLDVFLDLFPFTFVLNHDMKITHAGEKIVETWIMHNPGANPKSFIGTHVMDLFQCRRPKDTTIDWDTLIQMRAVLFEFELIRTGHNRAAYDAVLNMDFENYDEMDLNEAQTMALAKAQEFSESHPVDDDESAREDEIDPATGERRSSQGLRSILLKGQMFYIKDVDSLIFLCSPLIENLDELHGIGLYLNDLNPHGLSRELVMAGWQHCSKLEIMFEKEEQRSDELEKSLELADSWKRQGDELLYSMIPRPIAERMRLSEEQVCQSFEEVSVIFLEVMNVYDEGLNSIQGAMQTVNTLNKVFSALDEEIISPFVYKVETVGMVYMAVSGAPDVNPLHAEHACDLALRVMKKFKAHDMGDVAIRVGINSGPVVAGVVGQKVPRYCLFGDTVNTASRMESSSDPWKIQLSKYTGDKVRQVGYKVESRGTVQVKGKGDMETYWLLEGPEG
# T2 sequence (Q9VEU5 whole entry, one chain of several): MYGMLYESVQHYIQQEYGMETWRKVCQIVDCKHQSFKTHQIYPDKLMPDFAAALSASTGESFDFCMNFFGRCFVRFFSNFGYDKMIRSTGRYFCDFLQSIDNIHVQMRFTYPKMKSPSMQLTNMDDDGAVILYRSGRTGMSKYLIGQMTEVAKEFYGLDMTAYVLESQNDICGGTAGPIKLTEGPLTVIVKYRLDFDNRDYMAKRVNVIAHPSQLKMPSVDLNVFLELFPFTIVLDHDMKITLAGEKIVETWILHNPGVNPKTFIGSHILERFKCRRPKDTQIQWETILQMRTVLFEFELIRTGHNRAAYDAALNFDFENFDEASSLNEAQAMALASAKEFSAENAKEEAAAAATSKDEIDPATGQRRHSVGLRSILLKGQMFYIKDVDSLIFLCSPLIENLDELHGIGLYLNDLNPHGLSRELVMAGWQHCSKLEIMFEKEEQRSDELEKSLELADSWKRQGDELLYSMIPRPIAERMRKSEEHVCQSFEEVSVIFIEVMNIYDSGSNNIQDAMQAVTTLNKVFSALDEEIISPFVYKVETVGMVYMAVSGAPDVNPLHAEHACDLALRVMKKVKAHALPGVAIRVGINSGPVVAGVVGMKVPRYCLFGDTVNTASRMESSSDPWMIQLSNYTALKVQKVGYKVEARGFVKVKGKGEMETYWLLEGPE
smiles,measurement,setting,value
Nc1nc(-c2nn(Cc3ccccc3F)c3ncccc23)ncc1C1CC1 [BAY 41-2272],activation by NO-independent activator,"Gyc-88EL [1]; COS-7 cell extracts, 4mM Mg2+",None of the atypical guanylyl cyclase subunit combinations showed any activation
same,activation by NO-independent activator,"Gyc-88EL/89Da; COS-7 cell extracts, 4mM Mg2+",None of the atypical guanylyl cyclase subunit combinations showed any activation
same,activation by NO-independent activator,Gyc-88EL/89Db [2],None of the atypical guanylyl cyclase subunit combinations showed any activation
same,EC50,Gycα-99B/β-100B,7.3 µM
same,activation at 30 μM,"Gycα-99B/β-100B; 30 μM, 4mM Mg2+",over 100 fold
OCc1ccc(-c2nn(Cc3ccccc3)c3ccccc23)o1 [YC-1],activation by NO-independent activator,"Gyc-88EL [1]; COS-7 cell extracts, 4mM Mg2+",insensitivity
same,activation by NO-independent activator,"Gyc-88EL/89Da; COS-7 cell extracts, 4mM Mg2+",insensitivity
same,activation by NO-independent activator,Gyc-88EL/89Db [2],insensitivity
same,activation by NO-independent activator,Gycα-99B/β-100B,only activate the conventional enzyme
"CC(=O)NC(C(=O)O)C(C)(C)SN=O (centres unmarked) [SNAP, S-nitroso-N-acetylpenicillamine]",EC50 for activation,"Gyc-88EL [1]; COS-7 cell extracts, 4mM Mg2+",not saturated with 100 μM SNAP
same,EC50,Gyc-88EL/89Da,~10 µM
same,EC50,Gyc-88EL/89Db [2],~10 µM
CCNCCN(CC)N(O)N=O [NOC-12],EC50,Gyc-88EL/89Da,~2 µM
same,EC50,Gyc-88EL/89Db [2],~2 µM
same,half-life,[3],5.45 h
"O=c1onc2cnc3ccccc3n12 [ODQ, 1H-[1,2,4]oxadiazolo [4,3,-a]quinoxaline-1-one]",inhibition of NOC-12-stimulated activity,"Gyc-88EL/89Da; 100 μM ODQ, data not shown",inhibited
same,DEA-NONOate-stimulated guanylyl cyclase activity in the presence of ODQ,"Gyc-88EL/89Db [2]; 1 μM DEA-NONOate + 100 μM ODQ, 676 ± 70 in the absence",141 ± 21 fmoles cGMP/min/mg protein
same,inhibition of NOC-12-stimulated activity,"Gyc-88EL/89Db [2]; 100 μM ODQ, data not shown",inhibited
same,basal guanylyl cyclase activity in the presence of ODQ,"Gyc-88EL/89Db [2]; 100 μM ODQ, 208 ± 19 in the absence",237 ± 13 fmoles cGMP/min/mg protein
same,blocking of the NO-stimulation,Gycα-99B/β-100B; all forms of the soluble guanylyl cyclases,effective at blocking the NO-stimulation
same,inhibition of the activation by sodium nitroprusside,Gyc-88EL [4],ineffective
Nc1nc2c(ncn2[C@@H]2O[C@H](COP(=O)(O)OP(=O)(O)OP(=O)(O)O)[C@@H](O)[C@H]2O)c(=O)[nH]1 [GTP],Vmax Mn/Mg,Gyc-88EL [1]; ratio of Vmax in Mn2+ to Mg2+,1.71
same,Vmax Mn/Mg,Gyc-88EL/89Da; ratio of Vmax in Mn2+ to Mg2+,46.9
same,Vmax Mn/Mg,Gyc-88EL/89Db [2]; ratio of Vmax in Mn2+ to Mg2+,1.81
same,Vmax Mn/Mg,Gycα-99B/β-100B; ratio of Vmax in Mn2+ to Mg2+,96.7
"CCN(CC)/[N+]([O-])=N/O [DEA-NONOate, diethylamine- (DEA)-NONOate]",maximal stimulation of guanylyl cyclase activity,"Gyc-88EL [1]; COS-7 cell extracts, 4mM Mg2+",No stimulation
same,maximal stimulation of guanylyl cyclase activity,"Gyc-88EL/89Da; COS-7 cell extracts, 4mM Mg2+",No stimulation
same,EC50,Gyc-88EL/89Db [2],~0.1 µM
same,DEA-NONOate-stimulated guanylyl cyclase activity,"Gyc-88EL/89Db [2]; 1 μM DEA-NONOate, absence of ODQ, basal 208 ± 19",676 ± 70 fmoles cGMP/min/mg protein
same,concentration of maximal activation,Gyc-88EL/89Db [2]; bell-shaped response,about 1 μM
same,activation at 100 μM,Gyc-88EL [4]; 100 μM,did not significantly activate
same,activation at 100 μM,Gyc-88EL/89Db [5],did not significantly activate
